# Test results: US11291726B2 (KOREA INSTITUTE OF SCIENCE AND TECHNOLOGY, priority 2018, dated 2022)
# Assays:
# [1] = Photothermal efficiency (solution temperature under laser irradiation); type: physicochemical; conditions: laser 808 nm, 1 W; followed by temperature decrease due to photodegradation
# Excerpt: Such an increase of photothermal efficiency of the ICG-Fe NPs is thought to be due to fluorescence of ICG, which competitively acts on the photothermal reaction and is present within the nanoparticles in a fluorescence-quenched state.
# [2] = test system: nude mice; assay: Toxicity in animal models (blood liver levels, liver/kidney tissue staining); type: in vivo; conditions: 200 μL intravenously, male nude mice, two days later
# Excerpt: Two days later, blood and liver/kidney tissues were collected and evaluated for toxicity.
# [3] = test system: HT-29 cells (human colon cancer) solid tumors; assay: Cancer cell accumulation in cancer disease model via fluorescence imaging; type: in vivo; conditions: HT-29 tumor on left thigh of nude mice, 200 μL intravenously
# Experimental: The model with a cancer disease was prepared by subcutaneous injection of 1×10^7 HT-29 cells (human colon cancer, Korean Cell Line Bank) on the left thigh of 5-week-old male nude mice (Orientbio Inc., Korea). After 2 weeks of cancer cell transplantation, solid tumors were confirmed to be formed, and then subsequent experiments were performed.
compound,measurement,setting,value
"CC1(C)C(/C=C/C=C/C=C/C=C2\N(CCCCS(=O)(=O)O)c3ccc4ccccc4c3C2(C)C)=[N+](CCCCS(=O)(=O)[O-])c2ccc3ccccc3c21 [ICG, indocyanine green]",temperature increase at the beginning of laser irradiation,[1],about 45 °C
same,AST/ALT values (blood liver levels),[2],normal levels
same,immunostained liver/kidney tissues,[2],no abnormalities were found
same,fluorescence at the cancer site (accumulation),[3],did not show fluorescence at the cancer site
